One experiment concerns COX-2 expression. The experiment can be described thus: COX-2 immunoblot (Western blot) in RAW 264.7 cells. It is filed as cell-based, murine. As for the experimental part: (§1) Cell culture—RAW 264.7 cells (a murine macrophage-like cell line, ATCC TIB-71), 293T cells (a human embryonic kidney cell line, provided by Sam Lee, Beth Israel Hospital. Boston, Mass.), and HT-29 cells (a human colon adenocarcinoma cell line, ATCC HTB-38) were cultured in Dulbecco's modified Eagle's medium (DMEM) containing 10% (v/v) heat-inactivated fetal bovine serum (FBS, Intergen) and 100 units/ml Penicillin and […] Streptomycin (GIBCO-BRL) at 37° C. in a 5% CO2/air environment. Cells (2×10^6) were plated in 60-mm dishes and cultured for an additional 18 hours to allow the number of cells to approximately double. Cells were maintained in serum-poor (0.25% FBS) medium for another 18 hours prior to the treatment with indicated reagents.
Preparation of fatty acids-albumin complexes—All fatty acids were solubilized in ethanol, and then combined with fatty acid-free and low-endotoxin BSA at a molar ratio of 10:1 (fatty acid: albumin) in serum-poor medium (0.25% FBS). Fatty acids-albumin complex solution was freshly prepared prior to each experiment.
Sodium dodecyl sulfate-polyacrylamide gel electrophoresis (SDS-PAGE) and immunoblotting—These procedures were performed as previously described in D. Hwang et al., “Expression of mitogen-inducible cyclooxygenase induced by lipopolysaccharide: mediation through both mitogen-activated protein kinase and NF-kappaB signaling pathways in macrophages,” Biochem. Pharmacol., vol. 54, pp. 87-96 (1997). Briefly, solubilized proteins were subjected to 8% SDS-PAGE for COX-2, iNOS, IL- 1α and GAPDH immunoblot analyses. Following electrophoresis, the gel was transferred to a PVDF membrane and the membrane was blocked to prevent non-specific binding of antibodies in TBS-T [20 mM Tris HCl, 137 mM NaCl, 0.05% (v/v) Tween 20, pH 7.6] containing 5% non-fat dried milk (Carnation). Immunoblotting was performed using respective polyclonal antibodies followed by incubation with anti-rabbit IgG coupled to horseradish peroxidase. The membrane was exposed on an X-ray film (Kodak) using ECL western blot detection reagents (Amersham).
(§2) After 11 h, cell lysates were analyzed by COX-2, iNOS, IL-1α, or GAPDH immunoblot using a Western blot analysis.
The cell lysates were analyzed by COX-2 or GAPDH immunoblot.
(§3) RAW 264.7 cells were pretested with various concentrations (5, 10, 20, and 50 μM) of docosahexaenoic acid (C22:6n-3) for 3 hours, and then stimulated with LPS (100 ng/ml) for 8 hours and analyzed by COX-2, iNOS, IL-1 a or GAPDH immunoblot.
Cells stably transfected with NFκB(5×) or COX-2 promoter reporter genes were pretreated with various concentrations of each fatty acid for 3 hrs. Cells were then treated with LPS (200 ng/ml). After 8 hrs, cell lysates were prepared and luciferase activities were determined. Data are expressed as a percentage of LPS treatment alone. The results for NFκB and COX-2 expression are given in FIGS. 8A and 8B, respectively. The values are mean±SEM (n=3) of RLA, relative luciferase activity. In FIG. 8C, the cells were pretreated with DHA (20 μM) or C12:0 (75 μM) for 3 hrs and further stimulated with LPS (200 ng/ml for DHA; 1 ng/ml for C12:0). After 8 hr, cell lysates were analyzed by COX-2 and actin immunoblotting.
(Immunoblotting shows a protein as a band on a membrane.)

In another experiment the test system is iNOS expression. The experiment is described as follows: iNOS immunoblot in RAW 264.7 cells. It is filed as cell-based, murine. As to conditions: lauric acid 1, 10, 50, 100 μM with BSA, 11 h. As for the experimental part:
as §1
Preparation of fatty acids-albumin complexes—All fatty acids were solubilized in ethanol, and then combined with fatty acid-free and low-endotoxin BSA at a molar ratio of 10:1 (fatty acid: albumin) in serum-poor medium (0.25% FBS). […]
as §2, §3

Each structure is given as a SMILES string.

Consider `CCCCCCCCCCCC(=O)O` [lauric acid], for which the “effect on LPS-induced COX-2 expression (immunoblot)” value in the experiment with COX-2 expression (DHA 20 μM or C12:0 75 μM 3 hrs, LPS 200 ng/ml for DHA, 1 ng/ml for C12:0, 8 hr) is “potentiated”. The “COX-2 expression induced by fatty acid (immunoblot)” value with COX-2 expression (RAW 264.7, lauric acid 1, 10, 50, 100 μM with BSA, 11 h) is listed as “induced”. The “iNOS expression induced by fatty acid (immunoblot)” value in the experiment with iNOS expression is reported as “induced”.

These data come from patent US20030032674A1, “Use of unsaturated fatty acids to treat severe inflammatory diseases” (priority 2001, published 2003).
